Data reported in US11549115B2, “Compositions and methods for regulated gene expression” (YALE UNIVERSITY, priority 2017, dated 2023).

Assay: Sialic acid in murine fecal samples (LC-MS/MS)
Assay type: in vivo
Details: Swiss Webster, mouse, faeces; oral gavage, gnotobiotic mice monocolonized with B. thetaiotaomicron BT0455
Method: Groups of 6 germ-free Swiss Webster mice were orally gavaged with 1×10^9 CFU of the desired B. thetaiotaomicron strain. Fecal samples (˜100-200 mg) were collected daily for 12 days. aTC (100 μg/mL) was administered in drinking water for 12 hours after fecal collection on day 1. Fecal samples were homogenized in 1 mL of 1× tris-buffered saline (TBS) with a single 5 mm stainless steel bead using a bead beater (BioSpec Products) at 26° C. for 1 minute on the high setting, followed by vortexing at top speed for 8 minutes. Samples were then centrifuged at 500×g for 1 minute to pellet fibrous and insoluble matter. […]
For sialic acid measurements, 5 μL of internal standard solution (50 μM 1,2,3-^13C3 sialic acid in H2O) were added to each sample (20 μL) and proteins were precipitated through addition of 100 μL organic solvents at −20° C. […] The MassHunter Quantitative Analysis Software (Agilent, version 7.0) was used for peak integration with the most abundant ion fragment as quantifier and the others as qualifiers of the peak. Quantification was based on calibration curves using commercially available sialic acid and the signal intensity of the internal standard spiked into each sample.

half-life: ~9 h
SMILES: CC(=O)N[C@H]1[C@H]([C@H](O)[C@H](O)CO)OC(O)(C(=O)O)C[C@@H]1O (stereo partly shown) [sialic acid, N-acetylneuraminic acid]
